# Assay results reported in US7109193B2, “Tricyclic diazepines tocolytic oxytocin receptor antagonists” (Wyeth, priority 2001, dated 2006).
# Molecular target: T1, human vasopressin V2 receptor subtype (Homo sapiens, UniProt P30518)
# T1 construct: host or cells: CHO cells (pZeoSV vector)
# Assay: Vasopressin binding in Chinese Hamster Ovary cell membranes expressing human vasopressin V2 subtype receptors
# Conditions: 100 nM, CHO cell membranes, [3H]arginine vasopressin, values without parentheses
# Method in brief: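 Radioligand displacement on membranes from CHO cells stably expressing human V2 receptor, 25 to 50 μg protein/well, in 50 mM Tris-HCl pH 7.4 with MgCl2, BSA and protease inhibitors. [^3H]arginine vasopressin (8 nM working solution) incubated 60 min at room temperature; bound label measured by filtration and scintillation counting.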
# T1 sequence (P30518 whole entry): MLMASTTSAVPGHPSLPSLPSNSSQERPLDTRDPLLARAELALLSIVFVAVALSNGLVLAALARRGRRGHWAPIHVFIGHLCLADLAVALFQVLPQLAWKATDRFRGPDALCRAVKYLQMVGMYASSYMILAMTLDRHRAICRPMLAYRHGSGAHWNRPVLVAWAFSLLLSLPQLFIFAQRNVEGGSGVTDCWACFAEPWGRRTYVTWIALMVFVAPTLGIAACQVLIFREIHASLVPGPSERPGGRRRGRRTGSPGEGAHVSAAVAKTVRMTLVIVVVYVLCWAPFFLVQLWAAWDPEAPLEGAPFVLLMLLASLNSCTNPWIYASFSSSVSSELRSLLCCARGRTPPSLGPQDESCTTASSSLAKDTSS
row,SMILES,inhibition at 0.1 µM [%]
1,"COc1ccccc1-c1ccc(C(=O)N2Cc3ccc(C(=O)N(C)C4CCN(C)CC4)n3Cc3ccccc32)cc1 [Example 177, 10-[(2′-Methoxy[1,1′-biphenyl]-4-yl)carbonyl]-N-methyl-N-(1-methyl-4-piperidinyl)-10,11-dihydro-5H-pyrrolo[2,1-c][1,4]benzodiazepine-3-carboxamide]",18
2,"COc1cc(C(=O)N2Cc3ccc(C(=O)NCCC4CCCN4C)n3Cc3ccccc32)ccc1-c1ccccc1C (stereo not shown) [Example 167, 10-[(2-Methoxy-2′-methyl[1,1′-biphenyl]-4-yl)carbonyl]-N-[2-(1-methyl-2-pyrrolidinyl)ethyl]-10,11-dihydro-5H-pyrrolo[2,1-c][1,4]benzodiazepine-3-carboxamide]",20
3,"C=CCN1CCN(C(=O)c2ccc3n2Cc2ccccc2N(C(=O)c2ccc(-c4ccccc4C)cc2)C3)CC1 [Example 224, (4-Allyl-1-piperazinyl){10-[(2′-methyl[1,1′-biphenyl]-4-yl)carbonyl]-10,11-dihydro-5H -pyrrolo[2,1-c][1,4]benzodiazepin-3-yl}methanone]",7
4,"Cc1ccccc1-c1ccc(C(=O)N2Cc3ccc(C(=O)N4CCN(CCN5CCOCC5)CC4)n3Cc3ccccc32)cc1 [Example 209, {10-[(2′-Methyl[1,1′-biphenyl]-4-yl)carbonyl]-10,11-dihydro-5H-pyrrolo[2,1-c][1,4]benzodiazepin-3-yl}{4-[2-(4-morpholinyl)ethyl]-1-piperazinyl}methanone]",10
5,"COc1cccc(-c2cc(OC)c(C(=O)N3Cc4ccc(C(=O)NCCC5CCCN5C)n4Cc4ccccc43)cc2Cl)c1 (stereo not shown) [Example 169, 10-[(6-Chloro-3,3′-dimethoxy[1,1′-biphenyl]-4-yl)carbonyl]-N-[2-(1-methyl-2-pyrrolidinyl)ethyl]-10,11-dihydro-5H-pyrrolo[2,1-c][1,4]benzodiazepine-3-carboxamide]",5
6,"COc1cc(-c2ccccc2C)c(Cl)cc1C(=O)N1Cc2ccc(C(=O)N(C)C3CCN(C)CC3)n2Cc2ccccc21 [Example 180, 10-[(6-Chloro-3-methoxy-2′-methyl[1,1′-biphenyl]-4-yl)carbonyl]-N-methyl-N-(1-methyl-4-piperidinyl)-10,11-dihydro-5H-pyrrolo[2,1-c][1,4]benzodiazepine-3-carboxamide]",14
7,"Cc1cc(C(=O)N2Cc3ccc(C(=O)N4CCN(C(=O)OC(C)(C)C)CC4)n3Cc3ccccc32)ccc1-c1ccccc1C(F)(F)F [Example 6, 4-[[10,11-Dihydro-10-[[2-methyl-2′-trifluoromethyl[1,1′-biphenyl]-4-yl]carbonyl]-5H-pyrrolo[2,1-c][1,4]benzodiazepin-3-yl]carbonyl]-1-piperazine-carboxylic acid, tert-butyl ester]",13
8,"COc1cc(-c2ccccc2C)c(Cl)cc1C(=O)N1Cc2ccc(C(=O)N3CCN(CCN4CCOCC4)CC3)n2Cc2ccccc21 [Example 217, {10-[(6-Chloro-3-methoxy-2′-methyl[1,1′-biphenyl]-4-yl)carbonyl]-10,11-dihydro-5H -pyrrolo[2,1-c][1,4]benzodiazepin-3-yl}{4-[2-(4-morpholinyl)ethyl]-1-piperazinyl}methanone]",34
9,"COc1ccccc1-c1ccc(C(=O)N2Cc3ccc(C(=O)N(C)C4CCN(C)C4)n3Cc3ccccc32)cc1 (stereo not shown) [Example 187, 10-[(2′-Methoxy[1,1′-biphenyl]-4-yl)carbonyl]-N-methyl-N-(1-methyl-3-pyrrolidinyl)-10,11-dihydro-5H-pyrrolo[2,1-c][1,4]benzodiazepine-3-carboxamide]",31
10,"COc1cc(C(=O)N2Cc3ccc(C(=O)N4CCN(CCN5CCOCC5)CC4)n3Cc3ccccc32)ccc1-c1cccc2ccccc12 [Example 213, {10-[3-Methoxy-4-(1-naphthyl)benzoyl]-10,11-dihydro-5H-pyrrolo[2,1-c][1,4]benzodiazepin-3-yl}{4-[2-(4-morpholinyl)ethyl]-1-piperazinyl}methanone]",33
11,"CN1CCCC1CCNC(=O)c1ccc2n1Cc1ccccc1N(C(=O)c1ccc(-c3cccc4ccccc34)cc1Cl)C2 (stereo not shown) [Example 173, 10-[2-Chloro-4-(1-naphthyl)benzoyl]-N-[2-(1-methyl-2-pyrrolidinyl)ethyl]-10,11-dihydro-5H-pyrrolo[2,1-c][1,4]benzodiazepine-3-carboxamide]",17
12,"C=CCN1CCN(C(=O)c2ccc3n2Cc2ccccc2N(C(=O)c2cc(Cl)c(-c4cccc(OC)c4)cc2OC)C3)CC1 [Example 226, (4-Allyl-1-piperazinyl){10-[(6-chloro-3,3′-dimethoxy[1,1′-biphenyl]-4-yl)carbonyl]-10,11-dihydro-5H-pyrrolo[2,1-c][1,4]benzodiazepin-3-yl}methanone]",10
13,"COc1cccc(-c2cc(OC)c(C(=O)N3Cc4ccc(C(=O)N(C)C5CCN(C)CC5)n4Cc4ccccc43)cc2Cl)c1 [Example 181, 10-[(6-Chloro-3,3′-dimethoxy[1,1′-biphenyl]-4-yl)carbonyl]-N-methyl-N-(1-methyl4-piperidinyl)-10,11-dihydro-5H-pyrrolo[2,1-c][1,4]benzodiazepine-3-carboxamide]",12

# Further lines, results first:
row,inhibition at 0.1 µM [%],SMILES
1,19,"Cc1ccccc1-c1ccc(C(=O)N2Cc3ccc(C(=O)N4CCN(CCN(C)C)CC4)n3Cc3ccccc32)cc1C [Example 198, {4-[2-(Dimethylamino)ethyl]-1-piperazinyl}{10-[(2,2′-dimethyl[1,1′-biphenyl]-4-yl)carbonyl]-10,11-dihydro-5H-pyrrolo[2,1-c][1,4]benzodiazepin-3-yl}methanone]"
2,6,"COc1ccccc1-c1ccc(C(=O)N2Cc3ccc(C(=O)N4CCN(CCN(C)C)CC4)n3Cc3ccccc32)cc1OC [Example 204, {10-[(2,2′-Dimethoxy[1,1′-biphenyl]-4-yl)carbonyl]-10,11-dihydro-5H-pyrrolo[2,1-c][1,4]benzodiazepin-3-yl}{4-[2-(dimethylamino)ethyl]-1-piperazinyl}methanone]"
3,25,"COc1cccc(-c2ccc(C(=O)N3Cc4ccc(C(=O)N5CCN(C(C)C)CC5)n4Cc4ccccc43)cc2OC)c1 [Example 242, {10-[(2,3′-Dimethoxy[1,1′-biphenyl]-4-yl)carbonyl]-10,11-dihydro-5H-pyrrolo[2,1-c][1,4]benzodiazepin-3-yl}(4-isopropyl-1-piperazinyl)methanone]"
4,23,"Cc1ccccc1-c1ccc(C(=O)N2Cc3ccc(C(=O)N4CCN(C(C)C)CC4)n3Cc3ccccc32)cc1C [Example 233, {10-[(2,2′-Dimethyl[1,1′-biphenyl]-4-yl)carbonyl]-10,11-dihydro-5H-pyrrolo[2,1-c][1,4]benzodiazepin-3-yl}(4-isopropyl-1-piperazinyl)methanone]"
5,17,"COc1ccccc1-c1ccc(C(=O)N2Cc3ccc(C(=O)N(C)C4CCN(C)CC4)n3Cc3ccccc32)cc1C [Example 175, 10-[(2′-Methoxy-2-methyl[1,1′-biphenyl]-4-yl)carbonyl]-N-methyl-N-(1-methyl-4-piperidinyl)-10,11-dihydro-5H-pyrrolo[2,1-c][1,4]benzodiazepine-3-carboxamide]"
6,27,"COc1ccccc1-c1ccc(C(=O)N2Cc3ccc(C(=O)N(C)C4CCN(C)C4)n3Cc3ccccc32)cc1C (stereo not shown) [Example 185, 10-[(2′-Methoxy-2-methyl[1,1′-biphenyl]-4-yl)carbonyl]-N-methyl-N-(1-methyl-3-pyrrolidinyl)-10,11-dihydro-5H-pyrrolo[2,1-c][1,4]benzodiazepine-3-carboxamide]"
7,-3,"COc1cc(C(=O)N2Cc3ccc(C(=O)N4CCN(C(C)C)CC4)n3Cc3ccccc32)ccc1-c1ccccc1C [Example 237, (4-isopropyl-1-piperazinyl){10-[(2-methoxy-2′-methyl[1,1′-biphenyl]-4-yl)carbonyl]-10,11-dihydro-5H-pyrrolo[2,1-c][1,4]benzodiazepin-3-yl}methanone]"
8,19,"COc1cc(C(=O)N2Cc3ccc(C(=O)N4CCN(CCN(C)C)CC4)n3Cc3ccccc32)ccc1-c1ccccc1C [Example 201, {4-[2-(Dimethylamino)ethyl]-1-piperazinyl}{10-[(2-methoxy-2′-methyl[1,1′-biphenyl]-4-yl)carbonyl]-10,11-dihydro-5H-pyrrolo[2,1-c][1,4]benzodiazepin-3-yl}methanone]"
9,23,"COc1cc(C(=O)N2Cc3ccc(C(=O)N(C)C4CCN(C)CC4)n3Cc3ccccc32)ccc1-c1ccccc1C [Example 179, 10-[(2-Methoxy-2′-methyl[1,1′-biphenyl]-4-yl)carbonyl]-N-methyl-N-(1-methyl-4-piperidinyl)-10,11-dihydro-5H-pyrrolo[2,1-c][1,4]benzodiazepine-3-carboxamide]"
10,-17,"COc1ccccc1-c1ccc(C(=O)N2Cc3ccc(C(=O)N4CCN(C(C)C)CC4)n3Cc3ccccc32)cc1OC [Example 241, {10-[(2,2′-Dimethoxy[1,1-biphenyl]4-yl)carbonyl]-10,11-dihydro-5H-pyrrolo[2,1-c][1,4]benzodiazepin-3-yl}(4-isopropyl-1-piperazinyl)methanone]"
11,20,"C=CCN1CCN(C(=O)c2ccc3n2Cc2ccccc2N(C(=O)c2ccc(-c4cccc(OC)c4)c(OC)c2)C3)CC1 [Example 228, (4-Allyl-1-piperazinyl){10-[(2,3′-dimethoxy[1,1′-biphenyl]-4-yl)carbonyl]-10,11-dihydro-5H -pyrrolo[2,1-c][1,4]benzodiazepin-3-yl}methanone]"
12,19,"COc1ccccc1-c1ccc(C(=O)N2Cc3ccc(C(=O)NCCN4CCCCC4)n3Cc3ccccc32)cc1OC [Example 158, 10-[(2,2′-Dimethoxy[1,1′-biphenyl]-4-yl)carbonyl]-N-[2-(1-piperidinyl)ethyl]-10,11-dihydro-5H-pyrrolo[2,1-c][1,4]benzodiazepine-3-carboxamide]"
